In US20240182465A1 (GENFLEET THERAPEUTICS (SHANGHAI) INC., priority 2021, published 2024):
Structures can show the parent of a compound that is named as a salt.

How the values were obtained:
HPK1 [1] = target: T1, HPK1 (Homo sapiens, UniProt Q92918); assay: HPK1 kinase activity assay (ADP-Glo); conditions: HPK1 Kinase activity IC50 (nM), 1 nM HPK1, 10 μM ATP, 0.1 μg/μL MBP
T1 sequence (Q92918 1-346 limits assumed): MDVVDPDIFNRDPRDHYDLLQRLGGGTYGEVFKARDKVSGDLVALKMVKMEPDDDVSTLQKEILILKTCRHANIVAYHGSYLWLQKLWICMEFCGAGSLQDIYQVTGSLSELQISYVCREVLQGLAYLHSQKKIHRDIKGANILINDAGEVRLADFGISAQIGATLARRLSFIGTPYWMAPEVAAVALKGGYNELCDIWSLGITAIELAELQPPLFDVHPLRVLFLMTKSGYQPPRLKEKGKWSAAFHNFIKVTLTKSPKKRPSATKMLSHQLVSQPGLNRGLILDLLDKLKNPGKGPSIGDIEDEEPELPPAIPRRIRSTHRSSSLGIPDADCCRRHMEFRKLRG

HPK1 [2] = target: HPK1 (Homo sapiens, UniProt Q92918); assay: SLP76 phosphorylation assay (intracellular HPK1 inhibitory activity, p-SLP76 Ser376 sandwich ELISA); conditions: p-SLP76 IC50(nM), Jurkat, Clone E6-1 cells; 1 h compound pre-incubation, anti-CD3 beads stimulation 20 min; SLP76 phosphorylation at S376
Target sequence in this assay (Q92918 whole entry): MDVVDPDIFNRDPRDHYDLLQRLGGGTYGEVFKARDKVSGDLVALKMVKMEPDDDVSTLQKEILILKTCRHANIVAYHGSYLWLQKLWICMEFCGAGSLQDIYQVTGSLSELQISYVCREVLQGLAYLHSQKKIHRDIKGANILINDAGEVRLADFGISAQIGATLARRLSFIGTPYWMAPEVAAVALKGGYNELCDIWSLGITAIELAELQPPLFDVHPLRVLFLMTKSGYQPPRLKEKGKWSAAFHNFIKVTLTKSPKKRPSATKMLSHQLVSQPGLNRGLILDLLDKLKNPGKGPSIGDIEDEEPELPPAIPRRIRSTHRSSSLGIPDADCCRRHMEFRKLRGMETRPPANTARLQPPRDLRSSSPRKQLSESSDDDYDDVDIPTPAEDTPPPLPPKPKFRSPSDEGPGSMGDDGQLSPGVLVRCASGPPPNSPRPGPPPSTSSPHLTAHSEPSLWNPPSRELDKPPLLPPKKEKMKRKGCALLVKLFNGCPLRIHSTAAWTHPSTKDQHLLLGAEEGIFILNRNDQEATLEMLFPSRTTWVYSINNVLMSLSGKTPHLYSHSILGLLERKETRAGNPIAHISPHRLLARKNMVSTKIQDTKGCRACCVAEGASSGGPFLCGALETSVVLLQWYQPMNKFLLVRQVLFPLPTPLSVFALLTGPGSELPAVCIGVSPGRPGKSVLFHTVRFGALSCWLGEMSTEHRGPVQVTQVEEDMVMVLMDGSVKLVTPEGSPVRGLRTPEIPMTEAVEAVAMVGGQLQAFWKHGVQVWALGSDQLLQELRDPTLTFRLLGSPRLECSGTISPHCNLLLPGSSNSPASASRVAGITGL

| SMILES | IC50 (HPK1 [1]) [nM] | IC50 (HPK1 [2]) [nM] |
| --- | --- | --- |
| Cc1c[nH]c2ncc(-c3cc4c(c([C@@H]5CCCN5)c3)CN(C(=O)c3cnn(C)c3)C4)cc12 [Compound Z368, (S)-(1-methyl-1H-pyrazol-4-yl)(6-(3-methyl-1H-pyrrolo[2,3-b]pyridin-5-yl)-4-(pyrrolidin-2-yl)isoindolin-2-yl)methanone hydrochloride] | 1.41 | 417 |
| CN(C)Cc1cc(-c2cnc3[nH]cc(Cl)c3c2)cc2c1COCC2 [Compound Z233, 1-(6-(3-chloro-1H-pyrrolo[2,3-b]pyridin-5-yl)isochroman-8-yl)-N,N-dimethylmethanamine] | 4.01 | 520 |
| Cc1c[nH]c2ncc(-c3cc4c(c([C@@H]5CCCN5)c3)CCN(C(=O)[C@@H]3CCOC3)C4)cc12 [Compound Z293, (7-(3-methyl-1H-pyrrolo[2,3-b]pyridin-5-yl)-5-((S)-pyrrolidin-2-yl)-3,4-dihydroisoquinolin-2(1H)-yl) ((R)-tetrahydrofuran-3-yl)methanone] | 0.47 | 113 |
| Cc1c[nH]c2ncc(-c3cc4c(c([C@@H]5CCCN5)c3)CN(C(=O)c3cn(C)nc3C(F)(F)F)CC4)cc12 [Compound Z337, [6-(3-methyl-1H-pyrrolo[2,3-b]pyridin-5-yl)-8-[(2S)-pyrrolidin-2-yl]-3,4-dihydro-1H-isoquinolin-2-yl]-[l-methyl-3-(trifluoromethyl)pyrazol-4-yl]methanone] | 1.57 | 359 |
| CC(=O)N1CCc2cc(-c3cnc4[nH]cc(C)c4c3)cc([C@@H]3CCCN3)c2C1 (single isomer, unassigned) [Compound Z98-2] | 0.5 | 152 |
| Cc1c[nH]c2ncc(-c3cc4c(c([C@@H]5CCCN5)c3)CN(CC3CCOCC3)CC4)cc12 [Compound Z442, (S)-6-(3-methyl-1H-pyrrolo[2,3-b]pyridin-5-yl)-8-(pyrrolidin-2-yl)-2-((tetrahydro-2H-pyran-4-yl)methyl)-1,2,3,4-tetrahydroisoquinoline] | 1.5 | 412 |
| Cc1c[nH]c2ncc(-c3cc4c(c([C@@H]5CCCN5)c3)CN(C(=O)c3cnn(C(C)C)c3C(F)(F)F)CC4)cc12 [Compound Z438, (S)-[1-isopropyl-5-(trifluoromethyl)-1H-pyrazol-4-yl]-[6-(3-methyl-1H-pyrrolo[2,3-b]pyridin-5-yl)-8-[pyrrolidin-2-yl]-3,4-dihydroisoquinolin-2(1H)-yl]methanone] | 1.13 | 339 |
| Cc1c[nH]c2ncc(-c3cc4c(c(CN(C)C)c3)C(=O)N(C)CC4)cc12 [Compound Z186, 8-((dimethylamino)methyl)-2-methyl-6-(3-methyl-1H-pyrrolo[2,3-b]pyridin-5-yl)-3,4-dihydroisoquinolin-1(2H)-one] | 34.2 | 3760 |
| Cc1c[nH]c2ncc(-c3cc4c(c(C5CCCN5)c3)COCC4)cc12 (stereo not drawn) [Compound Z97, 3-methyl-5-(8-(pyrrolidin-2-yl)isochroman-6-yl)-1H-pyrrolo[2,3-b]pyridine] | 1.54 | 377 |
| Cc1c[nH]c2ncc(-c3cc4c(c([C@@H]5CCCN5)c3)CN(C(=O)[C@@H](O)c3ccccc3)CC4)cc12 [Compound Z290, (S)-2-hydroxy-1-(6-(3-methyl-1H-pyrrolo[2,3-b]pyridin-5-yl)-8-((S)-pyrrolidin-2-yl)-3,4-dihydroisoquinolin-2(1H)-yl)-2-acetophenone] | 0.77 | 272 |
| Cc1c[nH]c2ncc(-c3cc4c(c([C@@H]5CCCN5)c3)CCN(C(=O)C3(O)CC3)C4)cc12 [Compound Z310, (S)-(1-hydroxycyclopropyl)(7-(3-methyl-1H-pyrrolo[2,3-b]pyridin-5-yl)-5-(pyrrolidin-2-yl)-3,4-dihydroisoquinolin-2(1H)-yl)methanone] | 1.79 | 567 |
| Cc1c[nH]c2ncc(-c3cc4c(c([C@@H]5CCCN5)c3)CCOC4)cc12 [Compound Z75-1] | 1.7 | 475 |
| Cc1c[nH]c2ncc(-c3cc4c(c([C@@H]5CCCN5)c3)CN(C(=O)c3ccccn3)CC4)cc12 [Compound Z211, (S)-(6-(3-methyl-1H-pyrrolo[2,3-b]pyridin-5-yl)-8-(pyrrolidin-2-yl)-3,4-dihydroisoquinolin-2(1H)-yl) (pyridin-2-yl)methanone] | 1.7 | 463 |
| Cc1c[nH]c2ncc(-c3cc4c(c([C@@H]5CCCN5)c3)COC4)cc12 [Compound Z151-1, (S)-3-methyl-5-(7-(pyrrolidin-2-yl)-1,3-dihydroisobenzofuran-5-yl)-1H-pyrrolo[2,3-b]pyridine] | 2.52 | 739 |
| Cc1c[nH]c2ncc(-c3cc4c(c(C(C)N(C)C)c3)COCC4)cc12 (stereo not drawn) [Compound Z108-1, N,N-dimethyl-1-(6-(3-methyl-1H-pyrrolo[2,3-b]pyridin-5-yl)isochroman-8-yl)ethan-1-amine] | 4.12 | 571 |
| Cc1c[nH]c2ncc(-c3cc(C4CCCN4)c4cnccc4c3)cc12 (stereo not drawn) [Compound Z3, 6-(3-methyl-1H-pyrrolo[2,3-b]pyridin-5-yl)-8-(pyrrolidin-2-yl)isoquinoline formate] | 4.34 | 853 |

The remaining compounds from weak to strong by IC50 (HPK1 [1]), led by results:

| IC50 (HPK1 [1]) [nM] | IC50 (HPK1 [2]) [nM] | SMILES |
| --- | --- | --- |
| 1.02 | 269 | Cc1c[nH]c2ncc(-c3cc4c(c([C@@H]5CCCN5)c3)CN(C(=O)c3cc(C)n(C)n3)CC4)cc12 [Compound Z354] |
| 0.78 | 210 | Cc1ccc(C(=O)N2CCc3cc(-c4cnc5[nH]cc(C)c5c4)cc([C@@H]4CCCN4)c3C2)nc1 [Compound Z439, (S)-(6-(3-methyl-1H-pyrrolo[2,3-b]pyridin-5-yl)-8-(pyrrolidin-2-yl)-3,4-dihydroisoquinolin-2(1H)-yl) (5-methylpyridin-2-yl)methanone] |
| 0.74 | 314 | Cc1c[nH]c2ncc(-c3cc4c(c([C@@H]5COCCN5)c3)CN(S(C)(=O)=O)CC4)cc12 [Compound Z316, 2-(methyldioxo-λ6-sulfanyl)-6-(3-methyl-1H-pyrrolo[2,3-b]pyridin-5-yl)-8-[(3R)-1,4-oxazecyclohex-3-yl]-1,2,3,4-tetrahydroisoquinoline] |
| 0.73 | 121 | Cc1cc(N2CCc3cc(-c4cnc5[nH]cc(C)c5c4)cc([C@@H]4CCCN4)c3C2)ccn1 [Compound Z320, (S)-6-(3-methyl-1H-pyrrolo[2,3-b]pyridin-5-yl)-2-(2-methylpyridin-4-yl)-8-(pyrrolidin-2-yl)-1,2,3,4-tetrahydroisoquinoline formate] |
| 0.67 | 164 | Cc1c[nH]c2ncc(-c3cc4c(c([C@@H]5CCCN5)c3)COCC4)cc12 (single isomer, unassigned) [Compound Z97-2] |
| 0.58 | 204 | Cc1c[nH]c2ncc(-c3cc4c(c([C@@H]5CCCN5)c3)CN(C(=O)C3CCOCC3)CC4)cc12 [Compound Z127] |
| 0.55 | 265 | COC(=O)N1CCc2cc(-c3cnc4[nH]cc(C)c4c3)cc([C@@H]3CCCN3)c2C1 [Compound Z34-1] |
| 0.53 | 277 | Cc1c[nH]c2ncc(-c3cc4c(c([C@@H]5CCCN5)c3)CCN(c3ccnn3C)C4)cc12 [Compound Z307, (S)-2-(1-methyl-1H-pyrazol-5-yl)-7-(3-methyl-1H-pyrrolo[2,3-b]pyridin-5-yl)-5-(pyrrolidin-2-yl)-1,2,3,4-tetrahydroisoquinoline] |
| 0.5 | 185 | COCC(=O)N1CCc2cc(-c3cnc4[nH]cc(C)c4c3)cc([C@@H]3CCCN3)c2C1 [Compound Z121, (S)-1-(6-(3-methyl-1H-pyrrolo[2,3-b]pyridin-5-yl)-8-(pyrrolidin-2-yl)-3,4-dihydroisoquinolin-2(1H)-yl)methoxyethyl ketone] |
| 0.45 | 196 | Cc1cc(C(=O)N2CCc3cc(-c4cnc5[nH]cc(C)c5c4)cc([C@@H]4CCCN4)c3C2)n(C)n1 [Compound Z355, (S)-(1,3-dimethyl-1H-pyrazol-5-yl)(6-(3-methyl-1H-pyrrolo[2,3-b]pyridin-5-yl)-8-(pyrrolidin-2-yl)-3,4-dihydroisoquinolin-2(1H)-yl)methanone] |
| 0.32 | 113 | COCC(=O)N1CCc2cc(-c3cnc4[nH]cc(C(C)C)c4c3)cc([C@@H]3CCCN3)c2C1 [Compound Z404] |
| 0.3 | 286 | Cc1ncncc1C(=O)N1CCc2cc(-c3cnc4[nH]cc(C)c4c3)cc([C@@H]3CCCN3)c2C1 [Compound Z283, (S)-(6-(3-methyl-1H-pyrrolo[2,3-b]pyridin-5-yl)-8-(pyrrolidin-2-yl)-3,4-dihydroisoquinolin-2(1H)-yl) (4-methylpyrimidin-5-yl)methanone] |
| 0.29 | 77 | CC(C#N)c1c[nH]c2ncc(-c3cc4c(c([C@@H]5CCCN5)c3)COCC4)cc12 (stereo partly drawn) [Compound Z104, 2-(5-(8-((S)-pyrrolidin-2-yl)isochroman-6-yl)-1H-pyrrolo[2,3-b]pyridin-3-yl)propanenitrile] |
| 0.22 | 92.9 | Cc1c[nH]c2ncc(-c3cc4c(c([C@@H]5CCCN5)c3)CN(C(=O)N3CCOC(C)(C)C3)CC4)cc12 [Compound Z362, (S)-(2,2-dimethylmorpholine)(6-(3-methyl-1H-pyrrolo[2,3-b]pyridin-5-yl)-8-(pyrrolidin-2-yl)-3,4-dihydroisoquinolin-2(1H)-yl)methanone] |
